Data as given in ChEMBL document CHEMBL4351011, “Design, synthesis and biological evaluations of 2-amino-4-(1-piperidine) pyridine derivatives as novel anti crizotinib-resistant ALK/ROS1 dual inhibitors” (Eur J Med Chem, 2019).
Values belong to the compound of their own block, whether it stands above or below them.

What was measured:
[1] = test system: NCI-H3122; assay: cells; details: Homo sapiens, NCI-H3122, 72 h
Description: Antiproliferative activity against ALK-addicted human NCI-H3122 cells assessed as reduction in cell viability incubated for 72 hrs by MTT assay

[2] = test system: HCC78; assay: cells; details: Homo sapiens, HCC78, 72 h
Description: Antiproliferative activity against ROS1-addicted human HCC78 cells assessed as reduction in cell viability incubated for 72 hrs by MTT assay

[3] = molecular target: T1, Proto-oncogene tyrosine-protein kinase ROS (Homo sapiens, UniProt P08922)
T1 sequence (P08922 whole entry): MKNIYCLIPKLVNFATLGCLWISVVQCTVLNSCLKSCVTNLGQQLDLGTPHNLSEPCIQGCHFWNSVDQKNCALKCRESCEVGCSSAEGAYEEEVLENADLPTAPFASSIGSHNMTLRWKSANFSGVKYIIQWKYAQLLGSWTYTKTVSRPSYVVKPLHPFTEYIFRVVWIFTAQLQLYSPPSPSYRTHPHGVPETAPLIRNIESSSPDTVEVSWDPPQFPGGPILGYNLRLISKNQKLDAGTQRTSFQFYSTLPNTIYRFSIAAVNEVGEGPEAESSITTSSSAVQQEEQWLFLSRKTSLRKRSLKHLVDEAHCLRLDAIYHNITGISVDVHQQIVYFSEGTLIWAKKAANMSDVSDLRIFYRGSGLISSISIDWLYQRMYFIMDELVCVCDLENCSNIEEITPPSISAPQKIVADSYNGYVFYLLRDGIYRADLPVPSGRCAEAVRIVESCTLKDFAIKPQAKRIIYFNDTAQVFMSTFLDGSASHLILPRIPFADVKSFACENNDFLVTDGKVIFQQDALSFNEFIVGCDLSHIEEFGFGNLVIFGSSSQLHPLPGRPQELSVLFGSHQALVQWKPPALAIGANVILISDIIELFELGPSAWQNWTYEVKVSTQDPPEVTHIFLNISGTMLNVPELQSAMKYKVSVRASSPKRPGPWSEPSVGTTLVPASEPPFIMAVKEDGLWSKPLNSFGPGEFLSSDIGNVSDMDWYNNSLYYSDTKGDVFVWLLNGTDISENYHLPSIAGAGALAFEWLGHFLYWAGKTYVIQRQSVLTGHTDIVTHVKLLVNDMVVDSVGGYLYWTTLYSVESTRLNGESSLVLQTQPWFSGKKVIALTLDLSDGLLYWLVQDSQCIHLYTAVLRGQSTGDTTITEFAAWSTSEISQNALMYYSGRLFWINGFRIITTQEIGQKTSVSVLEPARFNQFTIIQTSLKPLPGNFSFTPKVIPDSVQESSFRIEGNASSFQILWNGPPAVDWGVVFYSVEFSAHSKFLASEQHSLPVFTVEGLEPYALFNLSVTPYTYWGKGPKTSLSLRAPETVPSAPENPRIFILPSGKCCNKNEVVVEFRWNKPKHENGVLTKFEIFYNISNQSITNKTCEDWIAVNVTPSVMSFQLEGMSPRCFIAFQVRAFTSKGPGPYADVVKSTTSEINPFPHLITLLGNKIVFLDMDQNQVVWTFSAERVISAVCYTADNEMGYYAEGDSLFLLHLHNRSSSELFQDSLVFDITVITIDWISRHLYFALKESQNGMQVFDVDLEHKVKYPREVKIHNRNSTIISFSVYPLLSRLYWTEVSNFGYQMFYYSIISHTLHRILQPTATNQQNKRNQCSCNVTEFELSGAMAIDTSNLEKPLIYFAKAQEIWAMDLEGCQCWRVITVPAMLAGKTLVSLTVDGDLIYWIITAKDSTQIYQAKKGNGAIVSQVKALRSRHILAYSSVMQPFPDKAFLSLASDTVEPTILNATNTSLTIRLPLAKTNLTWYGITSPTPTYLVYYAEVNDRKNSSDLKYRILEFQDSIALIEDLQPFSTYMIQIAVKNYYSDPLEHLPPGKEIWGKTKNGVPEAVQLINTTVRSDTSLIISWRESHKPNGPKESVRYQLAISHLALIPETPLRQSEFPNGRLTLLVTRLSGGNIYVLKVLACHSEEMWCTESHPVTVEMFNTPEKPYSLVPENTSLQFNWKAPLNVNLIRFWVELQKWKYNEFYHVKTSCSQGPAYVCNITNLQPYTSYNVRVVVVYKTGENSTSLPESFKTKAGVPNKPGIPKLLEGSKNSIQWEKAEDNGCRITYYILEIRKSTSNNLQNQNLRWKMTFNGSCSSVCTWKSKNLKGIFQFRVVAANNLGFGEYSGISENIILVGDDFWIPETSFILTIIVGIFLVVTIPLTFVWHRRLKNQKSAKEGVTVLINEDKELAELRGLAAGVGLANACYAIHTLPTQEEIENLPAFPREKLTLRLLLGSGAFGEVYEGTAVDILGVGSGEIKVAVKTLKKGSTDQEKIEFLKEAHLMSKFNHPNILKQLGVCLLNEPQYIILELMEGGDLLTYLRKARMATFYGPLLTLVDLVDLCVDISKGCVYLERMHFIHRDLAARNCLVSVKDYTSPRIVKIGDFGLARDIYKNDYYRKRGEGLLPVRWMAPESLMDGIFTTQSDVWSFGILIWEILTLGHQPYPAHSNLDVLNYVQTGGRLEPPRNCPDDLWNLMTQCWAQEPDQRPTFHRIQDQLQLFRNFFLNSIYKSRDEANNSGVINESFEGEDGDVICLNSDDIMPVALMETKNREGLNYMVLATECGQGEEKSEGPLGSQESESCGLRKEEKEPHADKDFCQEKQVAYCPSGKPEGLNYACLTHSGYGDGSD

[4] = test system: A549; assay: cells; details: Homo sapiens, A549, 72 h
[5] = molecular target: T1, Proto-oncogene tyrosine-protein kinase ROS; remark: listed apart in the source
[6] = molecular target: T2, ALK tyrosine kinase receptor (Homo sapiens, UniProt Q9UM73)
Target sequence in this assay (Q9UM73 whole entry): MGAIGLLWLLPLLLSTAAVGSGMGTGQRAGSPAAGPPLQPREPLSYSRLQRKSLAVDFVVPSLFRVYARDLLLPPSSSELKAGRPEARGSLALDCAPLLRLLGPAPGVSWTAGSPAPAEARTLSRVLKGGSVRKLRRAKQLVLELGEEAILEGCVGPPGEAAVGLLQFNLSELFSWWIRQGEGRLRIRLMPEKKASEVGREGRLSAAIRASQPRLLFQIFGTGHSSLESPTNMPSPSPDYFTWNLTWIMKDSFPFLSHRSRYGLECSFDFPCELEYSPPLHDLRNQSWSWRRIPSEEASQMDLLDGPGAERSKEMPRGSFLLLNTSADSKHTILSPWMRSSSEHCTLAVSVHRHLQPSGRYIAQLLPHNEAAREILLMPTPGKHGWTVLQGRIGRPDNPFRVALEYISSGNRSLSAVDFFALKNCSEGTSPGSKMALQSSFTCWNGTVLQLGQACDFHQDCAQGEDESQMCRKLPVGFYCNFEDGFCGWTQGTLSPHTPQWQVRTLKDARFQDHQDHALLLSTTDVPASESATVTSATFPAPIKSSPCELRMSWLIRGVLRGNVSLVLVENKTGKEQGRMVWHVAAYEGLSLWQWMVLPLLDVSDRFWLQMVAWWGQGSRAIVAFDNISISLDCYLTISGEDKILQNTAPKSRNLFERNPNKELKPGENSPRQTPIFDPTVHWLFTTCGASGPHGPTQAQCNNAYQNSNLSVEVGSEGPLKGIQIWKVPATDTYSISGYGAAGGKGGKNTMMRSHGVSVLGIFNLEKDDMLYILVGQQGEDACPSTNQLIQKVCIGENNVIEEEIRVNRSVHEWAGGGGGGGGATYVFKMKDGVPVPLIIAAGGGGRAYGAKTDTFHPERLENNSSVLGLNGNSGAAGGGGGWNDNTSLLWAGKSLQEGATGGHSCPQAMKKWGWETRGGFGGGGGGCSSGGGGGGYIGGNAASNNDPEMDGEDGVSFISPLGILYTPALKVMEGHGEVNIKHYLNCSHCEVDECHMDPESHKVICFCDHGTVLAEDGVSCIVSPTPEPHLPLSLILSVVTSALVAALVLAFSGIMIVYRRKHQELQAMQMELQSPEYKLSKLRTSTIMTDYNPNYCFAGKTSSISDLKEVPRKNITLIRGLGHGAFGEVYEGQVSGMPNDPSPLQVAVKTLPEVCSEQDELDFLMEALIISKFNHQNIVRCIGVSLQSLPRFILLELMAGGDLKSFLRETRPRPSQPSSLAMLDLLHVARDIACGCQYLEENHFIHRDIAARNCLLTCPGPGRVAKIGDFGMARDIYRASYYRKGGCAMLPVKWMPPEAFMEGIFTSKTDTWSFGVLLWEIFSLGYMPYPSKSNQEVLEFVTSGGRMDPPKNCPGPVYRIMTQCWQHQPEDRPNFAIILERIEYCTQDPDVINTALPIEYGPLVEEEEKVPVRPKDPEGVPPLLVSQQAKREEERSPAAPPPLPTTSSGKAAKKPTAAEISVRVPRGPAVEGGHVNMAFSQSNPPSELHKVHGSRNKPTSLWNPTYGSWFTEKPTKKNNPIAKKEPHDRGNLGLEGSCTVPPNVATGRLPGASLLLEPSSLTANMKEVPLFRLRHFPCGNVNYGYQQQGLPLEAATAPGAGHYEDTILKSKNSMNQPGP

[7] = molecular target: T2, ALK tyrosine kinase receptor; details: at 1 µM
[8] = test system: ALK tyrosine kinase receptor (Homo sapiens), Q9UM73 [F1174L]; details: at 1 µM
Sequence of ALK tyrosine kinase receptor (Homo sapiens), Q9UM73 [F1174L] (Q9UM73 whole entry F1174L): as the sequence (Q9UM73 whole entry) above, with F1174L counted along it

[9] = molecular target: Activated CDC42 kinase 1 (Homo sapiens) (UniProt Q07912); assay: Inhibition of TNK2 (unknown origin) at 1 uM
[10] = molecular target: Tyrosine-protein kinase Fer (Homo sapiens) (UniProt P16591); assay: Inhibition of FER (unknown origin) at 1 uM
Sequence of Tyrosine-protein kinase Fer (Homo sapiens) (P16591 whole entry, looked up): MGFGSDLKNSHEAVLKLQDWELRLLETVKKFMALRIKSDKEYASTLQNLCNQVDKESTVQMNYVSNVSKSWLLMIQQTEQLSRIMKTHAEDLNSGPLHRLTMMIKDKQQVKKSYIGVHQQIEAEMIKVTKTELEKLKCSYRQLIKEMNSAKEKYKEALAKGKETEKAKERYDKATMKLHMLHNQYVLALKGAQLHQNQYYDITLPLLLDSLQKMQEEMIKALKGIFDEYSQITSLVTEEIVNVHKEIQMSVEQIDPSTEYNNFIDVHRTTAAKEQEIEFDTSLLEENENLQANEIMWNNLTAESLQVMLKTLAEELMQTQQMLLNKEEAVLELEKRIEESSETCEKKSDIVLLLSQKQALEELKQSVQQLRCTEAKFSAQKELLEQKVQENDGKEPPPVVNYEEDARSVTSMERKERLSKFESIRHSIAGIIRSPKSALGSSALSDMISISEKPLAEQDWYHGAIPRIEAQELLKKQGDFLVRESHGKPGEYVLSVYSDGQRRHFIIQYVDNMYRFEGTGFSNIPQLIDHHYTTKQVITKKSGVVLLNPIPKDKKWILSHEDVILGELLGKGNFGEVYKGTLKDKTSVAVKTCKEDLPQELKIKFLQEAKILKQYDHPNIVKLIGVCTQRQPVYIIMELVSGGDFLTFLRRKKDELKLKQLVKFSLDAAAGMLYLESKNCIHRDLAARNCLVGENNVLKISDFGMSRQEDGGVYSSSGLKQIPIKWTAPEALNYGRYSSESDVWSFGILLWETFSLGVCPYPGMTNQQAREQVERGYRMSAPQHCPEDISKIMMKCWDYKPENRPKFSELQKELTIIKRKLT

[11] = test system: BaF3; assay: cells; details: Mus musculus, BaF3, 72 h
Description: Antiproliferative activity against mouse BAF3 cells expressing wild type CD74/ROS1 assessed as reduction in cell viability incubated for 72 hrs by CCK8 assay

[12] = molecular target: Hepatocyte growth factor receptor (Homo sapiens) (UniProt P08581); assay: Inhibition of MET (unknown origin) at 1 uM
[13] = molecular target: Vascular endothelial growth factor receptor 2 (Homo sapiens) (UniProt P35968); assay: Inhibition of KDR (unknown origin) at 1 uM
[14] = test system: ALK tyrosine kinase receptor (Homo sapiens), Q9UM73 [L1196M]; assay: Potency index, ratio of crizotinib IC50 to compound IC50 for ALK L1196M mutant (unknown origin) at 1 uM
Sequence of ALK tyrosine kinase receptor (Homo sapiens), Q9UM73 [L1196M] (Q9UM73 whole entry L1196M, looked up): as the sequence (Q9UM73 whole entry) above, with L1196M counted along it

[15] = molecular target: CDK2/Cyclin A2 (Homo sapiens) (UniProt P24941+P20248); assay: Inhibition of CDK2/cyclinA (unknown origin) at 1 uM; type: protein-complex assay
[16] = molecular target: Mitogen-activated protein kinase 9 (Homo sapiens) (UniProt P45984); assay: Inhibition of MAPK9 (unknown origin) at 1 uM
[17] = test system: ALK tyrosine kinase receptor (Homo sapiens), Q9UM73 [L1196M]; details: at 1 µM
Description: Inhibition of ALK L1196M mutant (unknown origin) at 1 uM relative to control

[18] = molecular target: Tyrosine-protein kinase BTK (Homo sapiens) (UniProt Q06187); assay: Inhibition of BTK (unknown origin) at 1 uM
[19] = test system: BaF3; assay: cells; details: Mus musculus, BaF3, 72 h; remark: listed apart in the source
Description: Antiproliferative activity against mouse BAF3 cells expressing CD74/ROS1 G2032R mutant assessed as reduction in cell viability incubated for 72 hrs by CCK8 assay

[20] = molecular target: ALK tyrosine kinase receptor (Homo sapiens, UniProt Q9UM73, L1196M)
Description: Inhibition of ALK L1196M mutant (unknown origin) at 1 uM

[21] = molecular target: Proto-oncogene tyrosine-protein kinase receptor Ret (Homo sapiens) (UniProt P07949); assay: Inhibition of RET (unknown origin) at 1 uM
[22] = molecular target: Leukocyte tyrosine kinase receptor (Homo sapiens) (UniProt P29376); assay: Inhibition of LTK (unknown origin) at 1 uM
[23] = test system: BaF3; assay: cells; details: Mus musculus, BaF3, 72 h; remark: listed apart in the source
Description: Antiproliferative activity against mouse BAF3 cells expressing CD74/ROS1 L2026M mutant assessed as reduction in cell viability incubated for 72 hrs by CCK8 assay

[24] = molecular target: Tyrosine-protein kinase Fes/Fps (Homo sapiens) (UniProt P07332); assay: Inhibition of FES (unknown origin) at 1 uM
[25] = molecular target: Epidermal growth factor receptor (Homo sapiens) (UniProt P00533); assay: Inhibition of EGFR (unknown origin) at 1 uM
[26] = molecular target: Tyrosine-protein kinase JAK2 (Homo sapiens) (UniProt O60674); assay: Inhibition of JAK2 (unknown origin) at 1 uM
[27] = test system: ALK tyrosine kinase receptor (Homo sapiens), Q9UM73 [C1156Y]; details: at 1 µM
Sequence of ALK tyrosine kinase receptor (Homo sapiens), Q9UM73 [C1156Y] (Q9UM73 whole entry C1156Y, looked up): as the sequence (Q9UM73 whole entry) above, with C1156Y counted along it

[28] = test system: ALK tyrosine kinase receptor (Homo sapiens), Q9UM73 [R1275Q]; details: at 1 µM
Sequence of ALK tyrosine kinase receptor (Homo sapiens), Q9UM73 [R1275Q] (Q9UM73 whole entry R1275Q): as the sequence (Q9UM73 whole entry) above, with R1275Q counted along it

[29] = molecular target: Serine/threonine-protein kinase Nek2 (Homo sapiens) (UniProt P51955); assay: Inhibition of NEK2 (unknown origin) at 1 uM
[30] = molecular target: Insulin-like growth factor 1 receptor (Homo sapiens) (UniProt P08069); assay: Inhibition of IGF1R (unknown origin) at 1 uM
[31] = test system: BaF3; assay: Potency index, ratio of crizotinib IC50 to compound IC50 for mouse BAF3 cells expressing CD74/ROS1 G2032R mutant incubated for 72 hrs by CCK8 assay; type: functional

SMILES: COc1cc(N2CCN(C)CC2)ccc1Nc1cc(N2CCC[C@H](C(=O)NCc3ccc(OC(F)(F)F)cc3)C2)ccn1
- IC50 [1]: 7.53 µM
- IC50 [2]: 14.9 µM
- IC50 [3]: 1.08 µM
- IC50 [4]: 7.79 µM

SMILES: COc1cc(N2CCC(N3CCOCC3)CC2)ccc1Nc1cc(N2CCC[C@@H](C(=O)NCc3ccc(OC(F)(F)F)cc3)C2)ccn1
- IC50 [1]: 8.3 µM
- IC50 [2]: 13.7 µM
- IC50 [3]: > 10 µM
- IC50 [4]: 6.45 µM

SMILES: COc1ccc(CNC(=O)[C@H]2CCCN(c3ccnc(Nc4cn(C)nc4C)c3)C2)cc1OC
- IC50 [5]: Not Active
- IC50 [1]: > 100 µM
- IC50 [2]: > 100 µM
- IC50 [4]: > 100 µM

SMILES: COc1cc(N2CCNCC2)ccc1Nc1cc(N2CCC[C@@H](C(=O)NCc3ccc(OC(F)(F)F)cc3)C2)ccn1
- IC50 [6]: 0.56 µM
- inhibition [7]: 76%
- IC50 [1]: 10.7 µM
- IC50 [2]: 25.3 µM
- IC50 [3]: 1.21 µM
- IC50 [4]: 5.11 µM

SMILES: Cc1cc(Nc2cc(N3CCC[C@H](C(=O)NCc4ccc(OC(F)(F)F)cc4)C3)ccn2)ccc1NC1CCN(C)CC1
- IC50 [1]: 5.1 µM
- IC50 [2]: 7.76 µM
- IC50 [3]: > 10 µM
- IC50 [4]: 7.07 µM

SMILES: COc1ccc(CNC(=O)[C@H]2CCCN(c3ccnc(Nc4cnn(C5CCN(C)CC5)c4)c3)C2)cc1OC
- IC50 [5]: Not Active
- IC50 [1]: > 100 µM
- IC50 [2]: > 100 µM
- IC50 [4]: > 100 µM

SMILES: COc1cc(N2CCC(N3CCOCC3)CC2)ccc1Nc1cc(N2CCC[C@H](C(=O)NCc3ccc(OC(F)(F)F)cc3)C2)ccn1
- IC50 [1]: 5.81 µM
- IC50 [2]: 15.2 µM
- IC50 [3]: 3.39 µM
- IC50 [4]: 6.93 µM

SMILES: Cc1cc(Nc2cc(N3CCC[C@@H](C(=O)NCc4ccc(OC(F)(F)F)cc4)C3)ccn2)ccc1NC1CCN(C)CC1
- IC50 [1]: 10.4 µM
- IC50 [2]: 13.5 µM
- IC50 [3]: > 10 µM
- IC50 [4]: 6.51 µM

SMILES: Cc1nn(C)cc1Nc1cc(N2CCC[C@@H](C(=O)NCc3ccc(OC(F)(F)F)cc3)C2)ccn1
- IC50 [1]: 13.9 µM
- IC50 [2]: 80.7 µM
- IC50 [3]: 7.3 µM
- IC50 [4]: 9.74 µM

SMILES: COc1cc(N2CCC(N3CCN(C)CC3)CC2)ccc1Nc1cc(N2CCC[C@@H](C(=O)NCc3ccc(OC(F)(F)F)cc3)C2)ccn1
- IC50 [1]: 8.86 µM
- IC50 [2]: 10.9 µM
- IC50 [3]: > 10 µM
- IC50 [4]: 2.79 µM

Second part, led by results:

- IC50 [1]: 20.2 µM
- IC50 [2]: 34.6 µM
- IC50 [3]: 1.26 µM
- IC50 [4]: 11.3 µM
SMILES: Cc1nn(C)cc1Nc1cc(N2CCC[C@H](C(=O)NCc3ccc(OC(F)(F)F)cc3)C2)ccn1

- IC50 [1]: 27.8 µM
- IC50 [2]: 24.5 µM
- IC50 [3]: 12.1 µM
- IC50 [4]: 12.7 µM
SMILES: COc1cc(Nc2cc(N3CCC[C@H](C(=O)NCc4ccc(C)cc4)C3)ccn2)cc(OC)c1OC

- IC50 [5]: Not Active
- IC50 [1]: > 100 µM
- IC50 [2]: > 100 µM
- IC50 [4]: > 100 µM
SMILES: COc1ccc(CNC(=O)[C@H]2CCCN(c3ccnc(Nc4cnn(C)c4)c3)C2)cc1OC

- inhibition [8]: 80%
- inhibition [9]: -3%
- inhibition [10]: 6%
- IC50 [11]: 0.138 µM
- inhibition [12]: 6%
- inhibition [13]: -3%
- Ratio IC50 [14]: 2
- inhibition [15]: 1%
- inhibition [16]: -10%
- inhibition [17]: 93%
- inhibition [18]: -5%
- IC50 [19]: 0.105 µM
- IC50 [20]: 0.0413 µM
- inhibition [21]: -3%
- inhibition [22]: 91%
- IC50 [23]: 0.234 µM
- IC50 [6]: 0.174 µM
- inhibition [7]: 95%
- inhibition [24]: -1%
- inhibition [25]: 11%
- inhibition [26]: 11%
- IC50 [1]: 6.45 µM
- inhibition [27]: 100%
- IC50 [2]: 10.7 µM
- inhibition [28]: 92%
- inhibition [29]: -7%
- IC50 [3]: 0.53 µM
- inhibition [30]: 3%
- IC50 [4]: 3.64 µM
SMILES: COc1cc(N2CCNCC2)ccc1Nc1cc(N2CCC[C@H](C(=O)NCc3ccc(OC(F)(F)F)cc3)C2)ccn1
- Ratio IC50 [31]: 6

- IC50 [5]: Not Active
- IC50 [1]: 40.7 µM
- IC50 [2]: 67.2 µM
- IC50 [4]: 39.6 µM
SMILES: Cc1ccc(CNC(=O)[C@H]2CCCN(c3ccnc(Nc4cn(C)nc4C)c3)C2)cc1

- IC50 [5]: Not Active
- IC50 [1]: 44.3 µM
- IC50 [2]: 36.5 µM
- IC50 [4]: 17.2 µM
SMILES: O=C(NCc1ccc(OC(F)(F)F)cc1)[C@H]1CCCN(c2ccnc(Nc3ncccn3)c2)C1

- IC50 [1]: 16.6 µM
- IC50 [2]: 11 µM
- IC50 [3]: 2.26 µM
- IC50 [4]: 6.6 µM
SMILES: COc1cc(N2CCC(N3CCN(C)CC3)CC2)ccc1Nc1cc(N2CCC[C@H](C(=O)NCc3ccc(OC(F)(F)F)cc3)C2)ccn1

- IC50 [5]: Not Active
- IC50 [1]: 51.7 µM
- IC50 [2]: 83.7 µM
- IC50 [4]: > 100 µM
SMILES: COc1ccc(CNC(=O)[C@H]2CCCN(c3ccnc(Nc4cnn(C5CCNCC5)c4)c3)C2)cc1OC

- IC50 [5]: Not Active
- IC50 [1]: 15.1 µM
- IC50 [2]: 87.6 µM
- IC50 [4]: 53.8 µM
SMILES: CN1CCC(n2cc(Nc3cc(N4CCC[C@H](C(=O)NCc5ccc(C#N)cc5)C4)ccn3)cn2)CC1
